Columns and labels:
PI3Kδ (p110δ/p85α) = molecular target: T1, PI3Kδ (p110δ/p85α) (Homo sapiens, UniProt O00329); assay: PI3Kδ ADP-Glo assay; type: biochemical; settings: 20 μM PIP2, 10 μM ATP, 90 minutes
T1 construct: GST (N); made in house; host or cells: Baculovirus-infected Sf9 cells
Protocol: (c) an In Vitro Assay which Determines the Ability of a Test Compound to Inhibit PI3Kδ.
(§1) Activity of PI3Kδ was measured using ADP-Glo assay from Promega. PI3Kδ, a complex of N-terminal GST-tagged recombinant full-length human p110δ (GenBank, Accession No. NM_005026) and untagged recombinant full length human p85α (GenBank Accession No. XM—043865) were co-expressed in a Baculovirus infected Sf9 cell expression system. The ADP-Glo assay was performed to measure the amount of ADP generated from ATP hydrolysis coupled with PIP2 phosphorylation by the purified recombinant PI3Kδ (p110δ/p85α). PI3Kδ was incubated with 20 μM PIP2 substrate in the reaction buffer (10 mM Tris-HCl, pH 7.5, 50 mM NaCl, 5 mM MgCl2, 10 μM ATP and 0.5% DMSO) for 90 minutes at room temperature. The ADP generated was then detected by ADP-Glo assay from Promega, a luminescent ADP detection assay. The ADP-Glo assay is performed in two steps; first, after the kinase reaction, ADP-Glo Reagent is added to terminate the kinase reaction and deplete the remaining ATP. Second, the Kinase Detection Reagent is added to simultaneously convert ADP to ATP and allow the newly synthesized ATP to be measured using a luciferase/luciferin reaction.

PI3Kβ (p110β/p85α) = molecular target: T2, PI3Kβ (p110β/p85α) (Homo sapiens, UniProt P42338); assay: PI3Kβ ADP-Glo assay; type: biochemical; settings: 20 μM PIP2, 10 μM ATP, 90 minutes
T2 construct: His (N); made in house; host or cells: Baculovirus-infected Sf9 cells
Protocol: (B) an In Vitro Assay which Determines the Ability of a Test Compound to Inhibit PI3Kβ.
as §1, with “PI3Kβ” for “PI3Kδ”, “[…],” for “PI3Kδ,”, “His-tagged” for “GST-tagged”, “p110β” for “p110δ”, “NM_006219)” for “NM_005026)”, “PI3Kβ (p110β/p85α). PI3Kβ” for “PI3Kδ (p110δ/p85α). PI3Kδ”

CaPan1 = assay: Cell proliferation assay (CellTiter-Glo); type: cell-based; settings: Homo sapiens, CAPAN-1; Pancreas; 72 hours, 0.5% fetal bovine serum; read-out: antiproliferative activity IC50, CaPan1
How it was run: (§2)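 Luminescent ATP quantitation after 30 minutes of lysis served as the growth-inhibition read-out. Before this, cells (5,000 to 10,000 per well) were incubated for 72 hours with varying compound concentrations under low-serum conditions (0.5% fetal bovine serum).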

SW403 = assay: Cell proliferation assay (CellTiter-Glo); type: cell-based; settings: Homo sapiens, SW-403; Colon; 72 hours, 0.5% fetal bovine serum; read-out: antiproliferative activity IC50, SW403
How it was run: as §2

T-84 = assay: Cell proliferation assay (CellTiter-Glo); type: cell-based; settings: Homo sapiens, T84; Colon; 72 hours, 0.5% fetal bovine serum; read-out: antiproliferative activity IC50, T-84
How it was run: as §2

SWI-116 = assay: Cell proliferation assay (CellTiter-Glo); type: cell-based; settings: Colon; 72 hours, 0.5% fetal bovine serum; read-out: antiproliferative activity IC50, SWI-116
How it was run: as §2

OPM-2 = assay: Cell proliferation assay (CellTiter-Glo); type: cell-based; settings: Homo sapiens, Multiple Myeloma, 72 hours, 0.5% fetal bovine serum, read-out: antiproliferative activity IC50, OPM-2
How it was run: as §2

H358 = assay: Cell proliferation assay (CellTiter-Glo); type: cell-based; settings: Homo sapiens, NCI-H358; NSCLC; 72 hours, 0.5% fetal bovine serum; read-out: antiproliferative activity IC50, H358
How it was run: as §2

SW620 = assay: Cell proliferation assay (CellTiter-Glo); type: cell-based; settings: Homo sapiens, SW-620; Colon; 72 hours, 0.5% fetal bovine serum; read-out: antiproliferative activity IC50, SW620
How it was run: as §2

H2122 = assay: Cell proliferation assay (CellTiter-Glo); type: cell-based; settings: Homo sapiens, NCI-H2122; NSCLC; 72 hours, 0.5% fetal bovine serum; read-out: antiproliferative activity IC50, H2122
How it was run: as §2

H292 = assay: Cell proliferation assay (CellTiter-Glo); type: cell-based; settings: Homo sapiens, NCI-H292; NSCLC; 72 hours, 0.5% fetal bovine serum; read-out: antiproliferative activity IC50, H292
How it was run: as §2

A549 = assay: Cell proliferation assay (CellTiter-Glo); type: cell-based; settings: Homo sapiens, NSCLC, 72 hours, 0.5% fetal bovine serum, read-out: antiproliferative activity IC50, A549
How it was run: as §2

T2 sequence (P42338 whole entry): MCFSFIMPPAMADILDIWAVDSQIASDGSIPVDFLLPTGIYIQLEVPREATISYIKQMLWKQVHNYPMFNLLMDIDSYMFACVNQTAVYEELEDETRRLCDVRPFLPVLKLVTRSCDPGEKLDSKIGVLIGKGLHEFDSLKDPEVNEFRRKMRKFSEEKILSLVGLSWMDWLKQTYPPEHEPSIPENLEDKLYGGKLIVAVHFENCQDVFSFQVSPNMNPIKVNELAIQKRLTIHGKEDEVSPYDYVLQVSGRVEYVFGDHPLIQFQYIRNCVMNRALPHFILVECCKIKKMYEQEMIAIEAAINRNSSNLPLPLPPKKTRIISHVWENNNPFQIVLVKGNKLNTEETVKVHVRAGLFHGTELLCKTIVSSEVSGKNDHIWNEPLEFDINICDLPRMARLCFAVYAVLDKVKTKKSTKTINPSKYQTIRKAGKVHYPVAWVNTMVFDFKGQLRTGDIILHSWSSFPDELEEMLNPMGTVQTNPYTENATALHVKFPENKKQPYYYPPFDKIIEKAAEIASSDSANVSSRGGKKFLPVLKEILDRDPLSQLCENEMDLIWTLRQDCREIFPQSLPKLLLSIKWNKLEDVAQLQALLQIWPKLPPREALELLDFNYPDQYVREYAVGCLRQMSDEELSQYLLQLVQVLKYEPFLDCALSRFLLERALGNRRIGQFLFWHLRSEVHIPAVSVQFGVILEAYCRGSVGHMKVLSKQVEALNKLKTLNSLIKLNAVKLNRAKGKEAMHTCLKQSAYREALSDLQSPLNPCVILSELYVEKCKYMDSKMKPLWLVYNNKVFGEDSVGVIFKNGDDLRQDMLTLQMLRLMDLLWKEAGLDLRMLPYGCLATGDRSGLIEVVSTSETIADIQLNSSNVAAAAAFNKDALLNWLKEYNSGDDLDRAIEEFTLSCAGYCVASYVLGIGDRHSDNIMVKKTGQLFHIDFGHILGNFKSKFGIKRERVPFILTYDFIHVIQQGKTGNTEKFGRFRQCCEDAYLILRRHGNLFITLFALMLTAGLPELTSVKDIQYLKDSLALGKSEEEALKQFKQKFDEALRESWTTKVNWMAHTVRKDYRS
T2 sequence (P27986 whole entry partner): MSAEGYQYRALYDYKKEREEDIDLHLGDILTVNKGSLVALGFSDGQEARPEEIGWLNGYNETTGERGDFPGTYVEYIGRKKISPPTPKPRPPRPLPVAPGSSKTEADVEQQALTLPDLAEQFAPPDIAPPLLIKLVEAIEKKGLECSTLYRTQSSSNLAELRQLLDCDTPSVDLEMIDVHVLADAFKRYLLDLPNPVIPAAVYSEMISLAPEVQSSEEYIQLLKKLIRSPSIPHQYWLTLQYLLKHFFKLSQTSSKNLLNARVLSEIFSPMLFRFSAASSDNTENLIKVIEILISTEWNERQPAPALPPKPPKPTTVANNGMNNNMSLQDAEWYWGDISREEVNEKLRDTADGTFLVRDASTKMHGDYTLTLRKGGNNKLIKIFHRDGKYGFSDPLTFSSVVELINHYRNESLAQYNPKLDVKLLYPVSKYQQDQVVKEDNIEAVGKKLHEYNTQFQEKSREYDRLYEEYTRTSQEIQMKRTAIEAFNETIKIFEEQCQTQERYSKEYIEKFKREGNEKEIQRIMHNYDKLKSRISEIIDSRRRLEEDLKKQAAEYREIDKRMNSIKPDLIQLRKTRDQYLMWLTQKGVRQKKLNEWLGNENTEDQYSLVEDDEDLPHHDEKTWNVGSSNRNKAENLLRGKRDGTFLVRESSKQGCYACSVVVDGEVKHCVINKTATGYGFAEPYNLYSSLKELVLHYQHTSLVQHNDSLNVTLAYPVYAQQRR
T1 sequence (O00329 whole entry): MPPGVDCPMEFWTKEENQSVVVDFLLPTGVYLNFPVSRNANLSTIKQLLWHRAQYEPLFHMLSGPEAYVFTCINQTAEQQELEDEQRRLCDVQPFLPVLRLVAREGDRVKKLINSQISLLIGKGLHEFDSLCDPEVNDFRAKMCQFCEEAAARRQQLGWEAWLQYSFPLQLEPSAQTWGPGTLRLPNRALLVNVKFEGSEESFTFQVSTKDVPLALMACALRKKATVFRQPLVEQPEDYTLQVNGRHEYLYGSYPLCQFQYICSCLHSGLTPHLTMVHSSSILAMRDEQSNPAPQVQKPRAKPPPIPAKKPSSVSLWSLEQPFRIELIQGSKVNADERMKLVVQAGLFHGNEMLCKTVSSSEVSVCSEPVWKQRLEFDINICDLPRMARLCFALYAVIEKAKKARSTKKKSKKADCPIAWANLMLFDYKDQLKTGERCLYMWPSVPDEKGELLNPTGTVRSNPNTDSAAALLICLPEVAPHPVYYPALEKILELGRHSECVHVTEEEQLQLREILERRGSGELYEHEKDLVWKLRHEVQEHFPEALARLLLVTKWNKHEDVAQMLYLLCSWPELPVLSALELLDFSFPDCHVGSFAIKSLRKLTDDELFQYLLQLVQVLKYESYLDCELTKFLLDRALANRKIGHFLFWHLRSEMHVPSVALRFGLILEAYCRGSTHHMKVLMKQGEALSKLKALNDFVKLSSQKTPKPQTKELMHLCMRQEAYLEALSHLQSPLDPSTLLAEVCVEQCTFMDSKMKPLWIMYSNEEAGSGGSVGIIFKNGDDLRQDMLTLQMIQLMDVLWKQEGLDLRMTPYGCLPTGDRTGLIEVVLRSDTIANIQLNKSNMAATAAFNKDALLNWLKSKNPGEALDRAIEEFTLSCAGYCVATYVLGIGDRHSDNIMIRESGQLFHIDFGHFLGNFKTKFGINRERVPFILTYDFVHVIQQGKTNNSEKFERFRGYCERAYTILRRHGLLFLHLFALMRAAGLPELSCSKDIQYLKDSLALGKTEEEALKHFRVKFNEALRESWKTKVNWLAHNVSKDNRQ
T1 sequence (P27986 whole entry partner): as the sequence (P27986 whole entry partner) above

IC50 (PI3Kδ (p110δ/p85α)) [µM]	IC50 (PI3Kβ (p110β/p85α)) [µM]	IC50 (SW403) [µM]	IC50 (H358) [µM]	IC50 (SW620) [µM]	IC50 (H2122) [µM]	IC50 (H292) [µM]	IC50 (A549) [µM]	SMILES	IC50 (CaPan1) [µM]	IC50 (T-84) [µM]	IC50 (SWI-116) [µM]	IC50 (OPM-2) [µM]
< 0.1	< 0.1							CN(Cc1cc2nc(-c3cccc4[nH]ncc34)nc(N3CCOCC3)c2s1)c1ncc(C(=O)NO)cn1 [Compound 54, 2-(((2-(1H-indazol-4-yl)-4-morpholinothieno[3,2-d]pyrimidin-6-yl)methyl)(methyl)amino)-N-hydroxypyrimidine-5-carboxamide]	0.01 to 0.1			
< 0.1	0.1 to 1	< 0.01	< 0.01	< 0.01	< 0.01	< 0.01	0.01 to 0.1	CNc1ccc(-c2nc(N3CCOCC3)c3sc(CN(C)c4ncc(C(=O)NO)cn4)cc3n2)cn1 [Compound 111, N-Hydroxy-2-(methyl((2-(6-(methylamino)pyridin-3-yl)-4-morpholinothieno[3,2-d]pyrimidin-6-yl)methyl)amino)pyrimidine-5-carboxamide]		0.01 to 0.1	< 0.01	< 0.01
		< 0.01	< 0.01	< 0.01	< 0.01	< 0.01	< 0.01	CN(Cc1cc2nc(-c3ccc(N)cc3)nc(N3CCOCC3)c2s1)c1ncc(C(=O)NO)cn1 [Compound 150, 2-(((2-(4-aminophenyl)-4-morpholinothieno[3,2-d]pyrimidin-6-yl)methyl)(methyl)amino)-N-hydroxypyrimidine-5-carboxamide]	0.1 to 1	0.01 to 0.1	< 0.01	< 0.01

From patent US20130102595A1 (Curis, Inc., priority 2011, published 2013)
